# Assay results published in patent publication US10428045B2, “Benzazepine compounds, conjugates, and uses thereof” (Silverback Therapeutics, Inc., priority 2017, dated 2019).
# Counter-ions that a name gives are not always drawn.
# Test system: Human peripheral blood mononuclear cells (PBMC)
# Experiment: PBMC screening assay, TNF-α in supernatant
# Format: cell-based
# Details: TNF-α in supernatant of human PBMC, 24 hours, ELISA or HTRF
# Protocol: Human peripheral blood mononuclear cells (PBMC) were obtained from BenTek, frozen at 25×10^6 cell/mL in 10% DMSO (Sigma) prepared in fetal bovine serum (Gibco) and stored in liquid nitrogen. For culture PBMC were thawed quickly in a 37° C. water bath and diluted into pre-warmed RPMI 1640 (Lonza) supplemented with 10% fetal bovine serum, 2 mM glutamine, 50 μg/mL penicillin, 50 U/mL streptomycin (all from Gibco) and centrifuged for 5 minutes at 500×g. PBMC were suspended into the growth media described above and cultured at a concentration of 1×10^6 cells per mL at 37° C. in a 5% CO2 incubator.
# PBMC were thawed, suspended at a concentration of 1×10^6 cell/mL in growth media and 200 μL was aliquoted into each well of a 96-well plate for a total of 0.2×10^6 cells per well. PBMC were incubated for 16-18 hours at 37° C. in a 5% CO2 humidified incubator. The following day PBMC plates were centrifuged at 500×g for 5 minutes and the growth media was removed. 150 μL of twelve concentrations ranging from 1000 to 0.000238 nM of small molecules prepared in growth media were added to PBMC in duplicate and incubated for 24 hours at 37° C. in a 5% CO2 incubator. Prior to supernatant harvest, cells were spun at 500×g for 5 minutes to remove cell debris. TNF-α activity was assessed in the supernatant by ELISA (eBioscience) or HTRF (CisBio) per the manufacturer's instructions. Optical density at 450 nm and 570 nm (ELISA) or luminescence (HTRF) was analyzed using an Envision (Perkin Elmer) plate reader, as shown in Table 5.
row,SMILES,EC50 [nM]
1,"CCCN(CCC)C(=O)C1=Cc2ccc(C(=O)Nc3cccc(C(C)=O)c3)cc2N=C(N)C1 [Compound 1.2, N^8-(3-acetylphenyl)-2-amino-N^4,N^4-dipropyl-3H-benzo[b]azepine-4,8-dicarboxamide]",< 500
2,"CCCN(CCC)C(=O)C1=Cc2ccc(C(=O)Nc3cncc(CNC(=O)[C@@H](N)Cc4ccccc4)c3)cc2N=C(N)C1 [Compound 1.35, (S)-2-amino-N^8-(5-((2-amino-3-phenylpropanamido)methyl)pyridin-3-yl)-N^4,N^4-dipropyl-3H-benzo[b]azepine-4,8-dicarboxamide]",< 500
3,"CCCN(CCC)C(=O)C1=Cc2ccc(C(=O)Nc3cnc4c(c3)C(N)CCC4)cc2N=C(N)C1 (centres unmarked) [Compound 1.39, 2-amino-N^8-(5-amino-5,6,7,8-tetrahydro-quinolin-3-yl)-N^4,N^4-dipropyl-3H-benzo-[b]azepine-4,8-dicarbox-amide]",< 500
4,"CCCN(CCC)C(=O)C1=Cc2ccc(C(=O)Nc3cccc(C(=O)NCCNC(=O)OCc4ccccc4)c3)cc2N=C(N)C1 [Compound 1.27, benzyl (2-(3-(2-amino-4-(dipropylcarbamoyl)-3H-benzo[b]azepine-8-carboxamido)benzamido)ethyl)carbamate]",< 500
5,"CCCN(CCC)C(=O)C1=Cc2ccc(S(=O)(=O)Nc3cccnc3)cc2N=C(N)C1 [Compound 1.63, 2-amino-N,N-dipropyl-8-(N-(pyridin-3-yl)sulfamoyl)-3H-benzo[b]azepine-4-carboxamide]",500 to 1000
6,"CCCN(CCC)C(=O)C1=Cc2ccc(C(=O)Nc3ccc4c(c3)CCCN4)cc2N=C(N)C1 [Compound 1.12, 2-amino-N^4,N^4-dipropyl-N^8-(1,2,3,4-tetrahydroquinolin-6-yl)-3H-benzo[b]azepine-4,8-dicarboxamide trifluoroacetate salt]",< 500
7,"CCCN(CCC)C(=O)C1=Cc2ccc(C(=O)Nc3ccc4c(c3)NCCC4)cc2N=C(N)C1 [Compound 1.1, 2-amino-N^4,N^4-dipropyl-N^8-(1,2,3,4-tetrahydroquinolin-7-yl)-3H-benzo[b]azepine-4,8-dicarboxamide]",< 500
8,"CCCN(CCC)C(=O)C1=Cc2ccc(C(=O)Nc3ccc(N4CCC(N)CC4)nc3)cc2N=C(N)C1 [Compound 1.57, 2-amino-N^8-(6-(4-aminopiperidin-1-yl)pyridin-3-yl)-N^4,N^4-dipropyl-3H-benzo[b]azepine-4,8-dicarboxamide tris HCl salt]",< 500
9,"CCCN(CCC)C(=O)C1=Cc2ccc(C(=O)Nc3cncc(CNC(=O)[C@@H](N)C(C)C)c3)cc2N=C(N)C1 [Compound 1.51, (S)-2-amino-N^8-(5-((2-amino-3-methylbutanamido)methyl)pyridin-3-yl)-N^4,N^4-dipropyl-3H-benzo[b]azepine-4,8-dicarboxamide]",1000 to 3000
10,"CCCN(CCC)C(=O)C1=Cc2ccc(C(=O)Nc3cncc(CNC(=O)[C@H](N)Cc4ccccc4)c3)cc2N=C(N)C1 [Compound 1.36, (R)-2-amino-N^8-(5-((2-amino-3-phenyl-propanamido)-methyl)pyridine-3-yl)-N^4,N^4-dipropyl-3H-benzo[b]azepine-4,8-dicarboxamide]",< 500
11,"CCCN(CCC)C(=O)C1=Cc2ccc(C(=O)N3CCc4ccccc4C3)cc2N=C(N)C1 [Compound 1.24, 2-amino-N,N-dipropyl-8-(1,2,3,4-tetrahydroisoquinoline-2-carbonyl)-3H-benzo[b]azepine-4-carboxamide trifluoroacetate salt]",< 500
12,"CCCN(CCC)C(=O)C1=Cc2ccc(C(=O)Nc3ccc4c(c3)CCN(C(=O)OCc3ccccc3)C4)cc2N=C(N)C1 [Compound 1.29, benzyl 6-(2-amino-4-(dipropylcarbamoyl)-3H-benzo[b]azepine-8-carboxamido)-3,4-dihydroisoquinoline-2(1H)-carboxylate]",< 500
13,"CCCN(CCC)C(=O)C1=Cc2ccc(C(=O)Nc3cncc(CNC(=O)Oc4ccccc4)c3)cc2N=C(N)C1 [Compound 1.37, Phenyl ((5-(2-amino-4-(dipropylcarbamoyl)-3H-benzo[b]azepine-8-carboxamido)pyridin-3-yl)methyl)carbamate]",< 500
14,"CCCN(CCC)C(=O)C1=Cc2ccc(C(=O)NCC3OB(O)c4cc(NC(=O)OCc5ccccc5)ccc43)cc2N=C(N)C1 (centres unmarked) [Compound 1.49, benzyl (3-((2-amino-4-(dipropylcarbamoyl)-3H-benzo[b]azepine-8-carboxamido)methyl)-1-hydroxy-1,3-dihydrobenzo[c][1,2]oxaborol-6-yl)carbamate TFA salt]",500 to 1000
15,"CCCN(CCC)C(=O)C1=Cc2ccc(C(=O)Nc3ccc4c(c3)C(O)CCC4)cc2N=C(N)C1 (centres unmarked) [Compound 1.7, 2-amino-N^8-(8-hydroxy-5,6,7,8-tetrahydronaphthalen-2-yl)-N4,N4-dipropyl-3H-benzo[b]azepine-4,8-dicarboxamide trifluoroacetate salt]",< 500
16,"CCCN(CCC)C(=O)C1=Cc2ccc(C(=O)Nc3cnc4c(c3)CN(Cc3ccccc3)CC4)cc2N=C(N)C1 [Compound 1.48, 2-amino-N^8-(6-benzyl-5,6,7,8-tetrahydro-1,6-naphthyridin-3-yl)-N^4,N^4-dipropyl-3H-benzo[b]azepine-4,8-dicarboxamide]",< 500
17,"CCCN(CCC)C(=O)C1=Cc2ccc(C(=O)N[C@H]3C[C@@H]3c3ccccc3)cc2N=C(N)C1 [Compound 1.28, 2-amino-N^8-((1S,2R)-2-phenylcyclopropyl)-N^4,N^4-dipropyl-3H-benzo[b]azepine-4,8-dicarboxamide trifluoroacetate salt]",< 500
18,"CCCN(CCC)C(=O)C1=Cc2ccc(C(=O)Nc3cncc(CNC(=O)C4Cc5ccccc5CN4)c3)cc2N=C(N)C1 (centres unmarked) [Compound 1.34, 2-amino-N^4,N^4-dipropyl-N^8-(5-((1,2,3,4-tetrahyroisoquinoline-3-carboxamido)-methyl)pyridin-3-yl)-3H-benzo[b]azepine-4,8-dicarboxamide]",< 500
19,"CCCN(CCC)C(=O)C1=Cc2ccc(C(=O)Nc3cnc4c(c3)CNCC4)cc2N=C(N)C1 [Compound 1.50, 2-amino-N^4,N^4-dipropyl-N^8-(5,6,7,8-tetrahydro-1,6-naphthyridin-3-yl)-3H-benzo[b]azepine-4,8-dicarboxamide]",< 500
20,"CCCN(CCC)C(=O)C1=Cc2ccc(C(=O)Nc3ccc4c(c3)CCNC4)cc2N=C(N)C1 [Compound 1.13, 2-amino-N^4,N^4-dipropyl-N^8-(1,2,3,4-tetrahydroisoquinolin-6-yl)-3H-benzo[b]azepine-4,8-dicarboxamide trifluoroacetate salt]",< 500
21,"CCCN(CCC)C(=O)C1=Cc2ccc(C(=O)NCc3cccnc3)cc2N=C(N)C1 [Compound 1.3, 2-amino-N^4,N^4-dipropyl-N^8-(pyridin-3-ylmethyl)-3H-benzo[b]azepine-4,8-dicarboxamide HCl salt]",< 500
22,"CCCN(CCC)C(=O)C1=Cc2ccc(C(=O)Nc3ccc(C(C)=O)cc3)cc2N=C(N)C1 [Compound 1.25, N^8-(4-acetylphenyl)-2-amino-N^4,N^4-dipropyl-3H-benzo[b]azepine-4,8-dicarboxamide trifluoroacetate salt]",< 500
23,"CCCN(CCC)C(=O)C1=Cc2ccc(C(=O)NC3CCc4ccccc43)cc2N=C(N)C1 (centres unmarked) [Compound 1.23, 2-amino-N^8-(2,3-dihydro-1H-inden-1-yl)-N^4,N^4-dipropyl-3H-benzo[b]azepine-4,8-dicarboxamide trifluoroacetate salt]",< 500
24,"CCCN(CCC)C(=O)C1=Cc2ccc(C(=O)N[C@H](C)c3ccccc3)cc2N=C(N)C1 [Compound 1.22, (R)-2-amino-N^8-(1-phenylethyl)-N^4,N^4-dipropyl-3H-benzo[b]azepine-4,8-dicarboxamide trifluoroacetate salt]",< 500
25,"CCCN(CCC)C(=O)C1=Cc2ccc(C(=O)Nc3cncc(CNC(=O)CC(N)c4ccccc4)c3)cc2N=C(N)C1 (centres unmarked) [Compound 1.38, 2-amino-N^8-(5-((3-amino-3-phenyl-propanamido)methyl)-pyridin-3-yl)-N^4,N^4-dipropyl-3H-benzo[b]azepine-4,8-dicarboxamide]",< 500
26,"CCCN(CCC)C(=O)C1=Cc2ccc(C(=O)Nc3ccc(N4CCCC(N)C4)nc3)cc2N=C(N)C1 (centres unmarked) [Compound 1.56, 2-amino-N^8-(6-(3-aminopiperidin-1-yl)pyridin-3-yl)-N^4,N^4-dipropyl-3H-benzo[b]azepine-4,8-dicarboxamide]",1000 to 3000
27,"CCCN(CCC)C(=O)C1=Cc2ccc(C(=O)NCC3OB(O)c4ccccc43)cc2N=C(N)C1 (centres unmarked) [Compound 1.47, 2-amino-N^8-((1-hydroxy-1,3-dihydro-benzo[c][1,2]oxaborol-3-yl)methyl)-N4,N4-dipropyl-3H-benzo[b]azepine-4,8-dicarboxamide]",500 to 1000
28,"CCCN(CCC)C(=O)C1=Cc2ccc(C(=O)N[C@@H](C)c3ccccc3)cc2N=C(N)C1 [Compound 1.21, (S)-2-amino-N^8-(1-phenylethyl)-N^4,N^4-dipropyl-3H-benzo[b]azepine-4,8-dicarboxamide trifluoroacetate salt]",< 500
29,"CCCN(CCC)C(=O)C1=Cc2ccc(NC(=O)c3cccnc3)cc2N=C(N)C1 [Compound 1.62, 2-amino-8-(nicotinamido)-N,N-dipropyl-3H-benzo[b]azepine-4-carboxamide]",500 to 1000
